Targets include Melanocortin receptor 3 (Homo sapiens, UniProt P41968); Vasopressin V2 receptor (Homo sapiens, UniProt P30518); Motilin receptor (Homo sapiens, UniProt O43193); D(3) dopamine receptor (Homo sapiens, UniProt P35462); Vasopressin V1a receptor (Homo sapiens, UniProt P37288).
Assay [1] deals with T1, Alpha-2A adrenergic receptor (Homo sapiens, UniProt P08913).
T1 sequence (P08913 whole entry): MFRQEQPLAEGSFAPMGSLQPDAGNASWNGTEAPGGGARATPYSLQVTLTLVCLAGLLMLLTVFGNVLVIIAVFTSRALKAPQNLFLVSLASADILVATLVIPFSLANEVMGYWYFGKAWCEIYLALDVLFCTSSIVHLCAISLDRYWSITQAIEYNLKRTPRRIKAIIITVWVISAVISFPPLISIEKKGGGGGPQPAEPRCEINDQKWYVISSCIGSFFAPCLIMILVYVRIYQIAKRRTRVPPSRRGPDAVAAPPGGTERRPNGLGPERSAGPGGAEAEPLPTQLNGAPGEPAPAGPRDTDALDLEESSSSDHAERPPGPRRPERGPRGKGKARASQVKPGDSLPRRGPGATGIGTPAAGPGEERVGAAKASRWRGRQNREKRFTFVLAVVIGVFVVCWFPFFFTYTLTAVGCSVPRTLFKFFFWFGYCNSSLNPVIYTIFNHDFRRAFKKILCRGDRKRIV
Type of assay: functional, cell-based.

The target in assay [2] is Muscarinic acetylcholine receptor M3 (Homo sapiens, UniProt P20309).
The target in the next assay is T2, Adenosine receptor A3 (Homo sapiens, UniProt P0DMS8).
T2 sequence (P0DMS8 whole entry): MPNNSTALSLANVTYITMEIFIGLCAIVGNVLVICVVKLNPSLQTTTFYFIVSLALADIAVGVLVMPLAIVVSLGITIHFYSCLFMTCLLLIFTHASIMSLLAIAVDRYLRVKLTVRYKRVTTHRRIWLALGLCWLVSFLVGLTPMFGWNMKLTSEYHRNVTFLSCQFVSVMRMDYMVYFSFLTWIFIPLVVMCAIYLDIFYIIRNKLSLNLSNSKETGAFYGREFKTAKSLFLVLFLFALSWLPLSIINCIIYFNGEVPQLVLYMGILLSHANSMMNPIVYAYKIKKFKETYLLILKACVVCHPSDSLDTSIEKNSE

For assay [3], the target named is Voltage-gated inwardly rectifying potassium channel KCNH2 (Homo sapiens, UniProt Q12809). Type of assay: functional. To be noted: read-out: AC50.
Sequence of Voltage-gated inwardly rectifying potassium channel KCNH2 (Q12809 whole entry): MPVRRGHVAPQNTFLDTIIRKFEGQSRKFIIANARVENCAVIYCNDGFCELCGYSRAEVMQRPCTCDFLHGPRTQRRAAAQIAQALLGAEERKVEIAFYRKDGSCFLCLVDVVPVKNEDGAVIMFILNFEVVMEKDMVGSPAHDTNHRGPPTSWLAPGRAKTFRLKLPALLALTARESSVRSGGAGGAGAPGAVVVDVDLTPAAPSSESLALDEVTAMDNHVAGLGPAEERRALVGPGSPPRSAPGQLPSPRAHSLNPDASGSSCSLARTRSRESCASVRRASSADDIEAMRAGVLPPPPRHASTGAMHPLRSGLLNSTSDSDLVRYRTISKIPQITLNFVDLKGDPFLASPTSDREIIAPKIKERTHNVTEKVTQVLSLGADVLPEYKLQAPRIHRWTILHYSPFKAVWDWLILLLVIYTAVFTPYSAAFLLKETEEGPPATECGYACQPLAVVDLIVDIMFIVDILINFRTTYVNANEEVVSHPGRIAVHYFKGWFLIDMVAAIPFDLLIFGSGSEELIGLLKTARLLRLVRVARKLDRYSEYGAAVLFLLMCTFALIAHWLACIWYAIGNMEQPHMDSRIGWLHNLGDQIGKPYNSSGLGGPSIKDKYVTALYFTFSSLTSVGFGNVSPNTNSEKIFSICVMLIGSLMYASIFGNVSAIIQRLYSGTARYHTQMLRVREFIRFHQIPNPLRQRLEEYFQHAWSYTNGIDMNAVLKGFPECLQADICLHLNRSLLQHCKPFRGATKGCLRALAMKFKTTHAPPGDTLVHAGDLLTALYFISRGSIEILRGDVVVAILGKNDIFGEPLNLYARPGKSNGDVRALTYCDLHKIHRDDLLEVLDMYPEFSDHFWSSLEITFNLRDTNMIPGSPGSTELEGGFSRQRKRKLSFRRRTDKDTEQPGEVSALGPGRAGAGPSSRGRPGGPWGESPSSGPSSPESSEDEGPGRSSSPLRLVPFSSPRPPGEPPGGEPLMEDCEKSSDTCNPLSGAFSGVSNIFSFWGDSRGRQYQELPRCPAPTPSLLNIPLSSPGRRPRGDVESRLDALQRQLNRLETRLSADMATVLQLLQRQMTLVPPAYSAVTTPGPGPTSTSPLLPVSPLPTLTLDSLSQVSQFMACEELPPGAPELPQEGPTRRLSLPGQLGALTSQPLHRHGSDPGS
Assay [4] deals with cGMP-inhibited 3',5'-cyclic phosphodiesterase 3A (Homo sapiens, UniProt Q14432). Type of assay: functional.
Sequence of cGMP-inhibited 3',5'-cyclic phosphodiesterase 3A (Q14432 whole entry): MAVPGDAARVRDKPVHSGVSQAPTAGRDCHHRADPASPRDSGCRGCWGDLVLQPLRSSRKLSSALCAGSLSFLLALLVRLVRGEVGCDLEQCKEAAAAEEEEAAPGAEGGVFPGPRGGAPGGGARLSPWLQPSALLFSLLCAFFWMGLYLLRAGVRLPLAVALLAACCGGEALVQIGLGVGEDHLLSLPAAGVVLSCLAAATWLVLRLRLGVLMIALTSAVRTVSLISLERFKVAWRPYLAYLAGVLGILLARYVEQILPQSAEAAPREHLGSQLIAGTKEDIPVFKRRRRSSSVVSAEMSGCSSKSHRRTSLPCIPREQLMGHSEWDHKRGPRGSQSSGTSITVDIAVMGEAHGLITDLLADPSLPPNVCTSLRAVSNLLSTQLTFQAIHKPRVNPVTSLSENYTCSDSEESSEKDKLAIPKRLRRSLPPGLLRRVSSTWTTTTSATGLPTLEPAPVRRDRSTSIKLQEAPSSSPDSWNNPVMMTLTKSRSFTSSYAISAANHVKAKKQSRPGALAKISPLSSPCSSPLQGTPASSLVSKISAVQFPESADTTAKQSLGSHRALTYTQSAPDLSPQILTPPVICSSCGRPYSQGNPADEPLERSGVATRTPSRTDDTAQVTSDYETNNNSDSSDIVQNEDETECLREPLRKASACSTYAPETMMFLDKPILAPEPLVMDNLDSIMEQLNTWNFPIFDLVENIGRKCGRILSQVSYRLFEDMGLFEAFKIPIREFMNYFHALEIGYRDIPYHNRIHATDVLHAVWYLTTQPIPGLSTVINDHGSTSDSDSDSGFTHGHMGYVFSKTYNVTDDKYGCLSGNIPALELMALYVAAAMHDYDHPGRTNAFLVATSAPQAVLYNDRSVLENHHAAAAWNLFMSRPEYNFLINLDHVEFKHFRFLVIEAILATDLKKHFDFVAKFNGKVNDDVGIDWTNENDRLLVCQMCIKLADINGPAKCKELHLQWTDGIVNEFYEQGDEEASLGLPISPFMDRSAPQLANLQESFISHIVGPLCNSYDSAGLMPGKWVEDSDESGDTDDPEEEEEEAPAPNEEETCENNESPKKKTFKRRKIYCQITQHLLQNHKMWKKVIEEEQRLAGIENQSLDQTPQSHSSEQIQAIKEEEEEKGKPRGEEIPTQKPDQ
Assay [5] has as its target T3, Alpha-2B adrenergic receptor (Homo sapiens, UniProt P18089).
T3 sequence (P18089 whole entry): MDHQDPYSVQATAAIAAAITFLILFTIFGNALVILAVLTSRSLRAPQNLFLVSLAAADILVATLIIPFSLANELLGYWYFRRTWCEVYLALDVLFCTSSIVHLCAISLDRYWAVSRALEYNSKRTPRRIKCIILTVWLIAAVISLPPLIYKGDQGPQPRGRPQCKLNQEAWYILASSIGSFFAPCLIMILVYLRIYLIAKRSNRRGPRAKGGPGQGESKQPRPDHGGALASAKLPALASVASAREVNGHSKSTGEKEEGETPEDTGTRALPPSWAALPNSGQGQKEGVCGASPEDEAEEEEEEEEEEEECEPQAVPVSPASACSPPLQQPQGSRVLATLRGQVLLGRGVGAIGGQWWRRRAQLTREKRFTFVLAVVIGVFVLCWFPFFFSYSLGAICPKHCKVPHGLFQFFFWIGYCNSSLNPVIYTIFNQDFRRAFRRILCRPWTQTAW

In assay [6] the target is Sodium-dependent serotonin transporter (Homo sapiens, UniProt P31645).
The target of assay [7] is Sodium-dependent dopamine transporter (Homo sapiens, UniProt Q01959).
Sequence of Sodium-dependent dopamine transporter (Q01959 whole entry): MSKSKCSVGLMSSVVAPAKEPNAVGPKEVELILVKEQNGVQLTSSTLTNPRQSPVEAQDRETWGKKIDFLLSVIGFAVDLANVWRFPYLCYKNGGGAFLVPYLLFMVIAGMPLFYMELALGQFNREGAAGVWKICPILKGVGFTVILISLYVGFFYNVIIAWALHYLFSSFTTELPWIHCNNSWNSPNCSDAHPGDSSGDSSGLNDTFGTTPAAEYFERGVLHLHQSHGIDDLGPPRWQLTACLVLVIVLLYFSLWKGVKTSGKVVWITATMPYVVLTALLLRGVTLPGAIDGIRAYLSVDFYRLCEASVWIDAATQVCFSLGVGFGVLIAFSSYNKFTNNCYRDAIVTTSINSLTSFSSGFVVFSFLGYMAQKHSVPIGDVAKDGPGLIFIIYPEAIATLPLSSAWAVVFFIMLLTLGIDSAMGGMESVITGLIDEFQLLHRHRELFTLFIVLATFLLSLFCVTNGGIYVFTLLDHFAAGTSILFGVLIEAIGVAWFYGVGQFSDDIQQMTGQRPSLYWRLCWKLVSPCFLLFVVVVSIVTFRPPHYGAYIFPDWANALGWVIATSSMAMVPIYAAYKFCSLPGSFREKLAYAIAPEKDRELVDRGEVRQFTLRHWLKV
In assay [8] the target is T4, Alpha-2C adrenergic receptor (Homo sapiens, UniProt P18825).
T4 sequence (P18825 whole entry): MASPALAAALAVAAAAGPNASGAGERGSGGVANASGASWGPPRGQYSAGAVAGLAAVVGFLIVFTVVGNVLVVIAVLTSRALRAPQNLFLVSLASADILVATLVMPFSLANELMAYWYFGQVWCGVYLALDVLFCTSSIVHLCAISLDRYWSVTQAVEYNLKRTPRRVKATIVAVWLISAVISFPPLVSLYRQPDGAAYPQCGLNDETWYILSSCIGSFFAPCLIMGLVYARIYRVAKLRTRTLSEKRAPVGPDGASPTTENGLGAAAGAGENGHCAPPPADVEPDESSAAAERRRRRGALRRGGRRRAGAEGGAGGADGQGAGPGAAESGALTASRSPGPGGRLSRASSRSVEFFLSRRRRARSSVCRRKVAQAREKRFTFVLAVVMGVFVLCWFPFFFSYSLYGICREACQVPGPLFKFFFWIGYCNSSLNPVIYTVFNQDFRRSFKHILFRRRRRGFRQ
It is filed as functional.

Assay [9] addresses T5, Neuropeptide Y receptor type 1 (Homo sapiens, UniProt P25929).
T5 sequence (P25929 whole entry): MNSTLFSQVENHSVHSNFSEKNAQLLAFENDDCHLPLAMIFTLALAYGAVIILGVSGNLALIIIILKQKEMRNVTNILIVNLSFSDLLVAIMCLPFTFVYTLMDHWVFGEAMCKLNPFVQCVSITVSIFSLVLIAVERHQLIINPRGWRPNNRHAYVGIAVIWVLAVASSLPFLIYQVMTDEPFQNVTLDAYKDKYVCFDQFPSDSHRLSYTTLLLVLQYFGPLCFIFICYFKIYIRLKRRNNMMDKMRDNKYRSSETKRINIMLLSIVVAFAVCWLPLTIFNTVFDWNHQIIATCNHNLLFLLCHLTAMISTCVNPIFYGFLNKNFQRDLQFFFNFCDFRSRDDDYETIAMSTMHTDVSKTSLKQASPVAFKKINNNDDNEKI

Assay [10] has as its target 3',5'-cyclic-AMP phosphodiesterase 4D (Homo sapiens, UniProt Q08499). Type of assay: functional.
Another assay deals with D(1A) dopamine receptor (Homo sapiens, UniProt P21728). Type of assay: functional, cell-based.
Sequence of D(1A) dopamine receptor (P21728 whole entry): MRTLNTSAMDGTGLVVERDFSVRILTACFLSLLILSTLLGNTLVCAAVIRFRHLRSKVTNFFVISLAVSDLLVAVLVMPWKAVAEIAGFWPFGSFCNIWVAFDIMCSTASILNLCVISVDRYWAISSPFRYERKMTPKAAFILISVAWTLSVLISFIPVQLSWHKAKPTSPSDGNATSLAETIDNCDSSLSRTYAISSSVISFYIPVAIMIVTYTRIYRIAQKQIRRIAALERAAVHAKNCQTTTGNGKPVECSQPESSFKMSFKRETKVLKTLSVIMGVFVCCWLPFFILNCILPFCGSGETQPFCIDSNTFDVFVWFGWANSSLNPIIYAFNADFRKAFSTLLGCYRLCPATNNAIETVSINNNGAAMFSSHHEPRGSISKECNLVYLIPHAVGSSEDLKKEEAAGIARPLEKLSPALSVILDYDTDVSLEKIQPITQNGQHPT

We go through 7 compounds from ChEMBL document CHEMBL5291721, “A preclinical secondary pharmacology resource illuminates target-adverse drug reaction associations of marketed drugs” (Nat Commun, 2023).

The structures appear in SMILES notation.
Note: assay procedure not described here.

Sequence of Vasopressin V1a receptor (P37288 whole entry): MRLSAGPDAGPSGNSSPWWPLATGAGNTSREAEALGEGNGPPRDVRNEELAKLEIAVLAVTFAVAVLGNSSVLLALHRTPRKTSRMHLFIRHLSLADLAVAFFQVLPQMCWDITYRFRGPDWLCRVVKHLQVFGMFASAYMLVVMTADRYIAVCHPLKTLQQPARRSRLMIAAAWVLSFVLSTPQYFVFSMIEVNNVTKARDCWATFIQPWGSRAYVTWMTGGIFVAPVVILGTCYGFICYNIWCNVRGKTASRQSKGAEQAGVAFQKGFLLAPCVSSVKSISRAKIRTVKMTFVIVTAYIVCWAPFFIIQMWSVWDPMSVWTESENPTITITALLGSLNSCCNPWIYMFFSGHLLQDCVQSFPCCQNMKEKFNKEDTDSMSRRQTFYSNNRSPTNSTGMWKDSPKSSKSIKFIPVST
Sequence of Vasopressin V2 receptor (P30518 whole entry): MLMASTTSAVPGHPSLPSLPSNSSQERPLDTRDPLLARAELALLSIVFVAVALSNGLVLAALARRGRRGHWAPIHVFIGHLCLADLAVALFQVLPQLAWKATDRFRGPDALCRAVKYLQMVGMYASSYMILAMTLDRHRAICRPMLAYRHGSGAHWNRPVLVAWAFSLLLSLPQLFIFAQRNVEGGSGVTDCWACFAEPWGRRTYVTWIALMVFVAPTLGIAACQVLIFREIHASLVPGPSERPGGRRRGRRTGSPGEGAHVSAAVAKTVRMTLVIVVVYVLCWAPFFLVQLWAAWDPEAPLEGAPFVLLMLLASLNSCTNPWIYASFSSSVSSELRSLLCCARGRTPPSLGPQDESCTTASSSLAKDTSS
Sequence of Motilin receptor (O43193 whole entry): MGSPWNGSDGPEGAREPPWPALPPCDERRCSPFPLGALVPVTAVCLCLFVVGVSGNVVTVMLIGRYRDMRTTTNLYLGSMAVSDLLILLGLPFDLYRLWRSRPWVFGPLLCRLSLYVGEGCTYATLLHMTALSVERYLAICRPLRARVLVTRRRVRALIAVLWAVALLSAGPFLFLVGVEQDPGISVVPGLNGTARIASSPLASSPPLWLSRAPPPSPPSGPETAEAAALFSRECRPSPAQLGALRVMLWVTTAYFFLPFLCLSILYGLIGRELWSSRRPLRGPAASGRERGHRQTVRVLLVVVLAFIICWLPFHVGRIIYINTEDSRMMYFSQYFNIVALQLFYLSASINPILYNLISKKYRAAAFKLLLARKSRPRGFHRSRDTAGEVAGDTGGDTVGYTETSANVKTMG
Sequence of D(3) dopamine receptor (P35462 whole entry): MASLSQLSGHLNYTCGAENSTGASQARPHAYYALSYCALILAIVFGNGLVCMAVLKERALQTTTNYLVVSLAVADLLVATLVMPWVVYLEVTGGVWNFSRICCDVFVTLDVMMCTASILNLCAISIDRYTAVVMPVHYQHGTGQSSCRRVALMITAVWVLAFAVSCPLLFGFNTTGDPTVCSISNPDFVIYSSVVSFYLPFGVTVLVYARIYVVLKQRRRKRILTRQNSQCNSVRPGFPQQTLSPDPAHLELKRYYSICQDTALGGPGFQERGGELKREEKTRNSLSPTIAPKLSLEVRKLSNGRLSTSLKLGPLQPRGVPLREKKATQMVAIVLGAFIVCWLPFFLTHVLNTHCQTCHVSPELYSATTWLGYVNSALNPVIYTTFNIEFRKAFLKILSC

As to `O=C(O)C1=C(CSc2nnnn2CS(=O)(=O)O)CS[C@@H]2[C@H](NC(=O)[C@H](O)c3ccccc3)C(=O)N12` [CEFONICID], the AC50 (in assay [1]; in [2]; at Adenosine receptor A3; on Melanocortin receptor 3; at Vasopressin V2 receptor; in assay [3]) was over 30 µM each time. Besides, the AC50 is over 30 µM at Motilin receptor; over 30 µM in assay [4]; over 30 µM at D(3) dopamine receptor; over 30 µM in [5]; over 30 µM at Vasopressin V1a receptor; 30 µM in [6]. Further, the AC50 (in assay [7]; in [8]; in [9]; in assay [10]; at D(1A) dopamine receptor) was over 30 µM throughout.

On to `Cc1cc(O)c(C(=O)N[C@@H](C(=O)N[C@@H]2C(=O)N3C(C(=O)O)=C(CSc4nnnn4C)CS[C@H]23)c2ccc(O)cc2)cn1` [CEFPIRAMIDE], for which the AC50 (in [1]; in assay [2]; on Adenosine receptor A3; on Melanocortin receptor 3; on Vasopressin V2 receptor; in assay [3]) was over 30 µM in each case. The concentration at half-maximal activity (AC50) (at Motilin receptor; in assay [4]; on D(3) dopamine receptor; in [5]; at Vasopressin V1a receptor; in assay [6]) was over 30 µM throughout. Further, the half-maximal activity concentration (AC50) (in [7]; in assay [8]; in assay [9]; in assay [10]; on D(1A) dopamine receptor) was over 30 µM throughout.

Regarding `Nc1nc(/C(=C/CC(=O)O)C(=O)N[C@@H]2C(=O)N3C(C(=O)O)=CCS[C@H]23)cs1` [CEFTIBUTEN], the concentration at half-maximal activity (AC50) (in [1]; in assay [2]; on Adenosine receptor A3; at Melanocortin receptor 3; on Vasopressin V2 receptor; in assay [3]) was over 30 µM throughout. Further, the AC50 (on Motilin receptor; in assay [4]; at D(3) dopamine receptor; in assay [5]; at Vasopressin V1a receptor; in assay [6]) was over 30 µM each time. Further, the half-maximal activity concentration (AC50) (in assay [7]; in [8]; in [9]; in [10]; on D(1A) dopamine receptor) was over 30 µM each time.

Turning to `CC1(C)O[C@@H]2C[C@H]3[C@@H]4CCC5=CC(=O)C=C[C@]5(C)[C@H]4[C@@H](O)C[C@]3(C)[C@]2(C(=O)CO)O1` [DESONIDE], the AC50 in [1] was over 10 µM; in assay [2], over 30 µM; on Adenosine receptor A3, over 10 µM; at Melanocortin receptor 3 it was over 10 µM; on Vasopressin V2 receptor, over 10 µM; in assay [3] it was over 30 µM. Further, the half-maximal activity concentration (AC50) was over 10 µM at Motilin receptor; over 30 µM in assay [4]; over 30 µM at D(3) dopamine receptor; over 10 µM in [5]; over 10 µM at Vasopressin V1a receptor; over 10 µM in [6]. Moreover, the AC50 in assay [7] was over 10 µM; in assay [8], over 10 µM; in assay [9], over 10 µM; in assay [10], over 30 µM; at D(1A) dopamine receptor it was over 10 µM.

In the case of `C[C@]1(O)CC[C@H]2[C@@H]3CCC4=CC(=O)CC[C@]4(C)[C@@]3(F)[C@@H](O)C[C@@]21C` [FLUOXYMESTERONE], the AC50 in [1] was over 10 µM; in assay [2], over 30 µM; on Adenosine receptor A3, over 10 µM; at Melanocortin receptor 3, over 10 µM; on Vasopressin V2 receptor it was over 10 µM; in assay [3] it was over 30 µM. Moreover, the AC50 on Motilin receptor was over 10 µM; in assay [4], over 30 µM; on D(3) dopamine receptor, over 30 µM; in assay [5] it was over 30 µM; at Vasopressin V1a receptor, over 10 µM; in [6], over 10 µM. In addition, the AC50 in assay [7] is over 10 µM; in assay [8] it was over 30 µM; in [9], over 10 µM; in assay [10] it was over 30 µM; at D(1A) dopamine receptor, over 30 µM.

Take `CCCC(=O)O[C@]1(C(=O)CO)CC[C@H]2[C@@H]3CCC4=CC(=O)CC[C@]4(C)[C@H]3[C@@H](O)C[C@@]21C` [HYDROCORTISONE BUTYRATE]: the concentration at half-maximal activity (AC50) was over 10 µM in assay [1]; over 30 µM in [2]; over 10 µM on Adenosine receptor A3; over 10 µM on Melanocortin receptor 3; over 10 µM at Vasopressin V2 receptor; over 30 µM in assay [3]. The AC50 is over 10 µM on Motilin receptor; over 30 µM in assay [4]; over 30 µM on D(3) dopamine receptor; over 10 µM in assay [5]; over 10 µM on Vasopressin V1a receptor; over 10 µM in assay [6]. For the same compound, the AC50 in [7] was over 10 µM; in assay [8], over 10 µM; in assay [9], over 10 µM; in assay [10], over 30 µM; at D(1A) dopamine receptor, over 10 µM.

As for `CC(C(=O)O)c1ccc(N2Cc3ccccc3C2=O)cc1` (centres undefined) [INDOPROFEN], the concentration at half-maximal activity (AC50) (in assay [1]; in [2]; on Adenosine receptor A3; at Melanocortin receptor 3; on Vasopressin V2 receptor; in assay [3]) was over 30 µM in each case. Moreover, the AC50 (at Motilin receptor; in assay [4]; on D(3) dopamine receptor; in assay [5]; on Vasopressin V1a receptor; in assay [6]) was over 30 µM each time. In addition, the concentration at half-maximal activity (AC50) in [7] was over 30 µM; in [8] it was over 30 µM; in [9], over 30 µM; in [10], over 30 µM; on D(1A) dopamine receptor, 0.51 µM.

The term AC50 denotes the concentration at which the activity in the assay is half-maximal.
